According to ChEMBL document CHEMBL3351907, “Design, synthesis and biological evaluation of benzyl 2-(1H-imidazole-1-yl) pyrimidine analogues as selective and potent Raf inhibitors” (Bioorg Med Chem Lett, 2014):
Calls of active or inactive are those of the source. The calls are words filed in the database; no cut-off is given here.

Key:
[1] = (§1) Cytotoxicity against human A375P cells assessed as cell viability after 24 hrs by MTT assay; assay type: functional
[2] = (§2) Cytotoxicity against human U937 cells assessed as cell viability after 24 hrs by MTT assay; assay type: functional; details: U-937, 24 h
[3] = tested on: A375P; assay: as §1; assay type: functional
[4] = tested on: U-937; assay: as §2; assay type: functional
[5] = target: Tyrosine-protein kinase SYK (Homo sapiens) (UniProt P43405); assay: Inhibition of SYK (unknown origin) at 10 uM
[6] = target: Proto-oncogene tyrosine-protein kinase ROS (Homo sapiens) (UniProt P08922); assay: Inhibition of ROS/ROS1 (unknown origin) at 10 uM
[7] = target: Macrophage-stimulating protein receptor (Homo sapiens) (UniProt Q04912); assay: Inhibition of RON/MST1R (unknown origin) at 10 uM
[8] = target: T1, RAF proto-oncogene serine/threonine-protein kinase (Homo sapiens, UniProt P04049); assay: Inhibition of RAF1 (unknown origin) at 10 uM
T1 sequence (P04049 whole entry): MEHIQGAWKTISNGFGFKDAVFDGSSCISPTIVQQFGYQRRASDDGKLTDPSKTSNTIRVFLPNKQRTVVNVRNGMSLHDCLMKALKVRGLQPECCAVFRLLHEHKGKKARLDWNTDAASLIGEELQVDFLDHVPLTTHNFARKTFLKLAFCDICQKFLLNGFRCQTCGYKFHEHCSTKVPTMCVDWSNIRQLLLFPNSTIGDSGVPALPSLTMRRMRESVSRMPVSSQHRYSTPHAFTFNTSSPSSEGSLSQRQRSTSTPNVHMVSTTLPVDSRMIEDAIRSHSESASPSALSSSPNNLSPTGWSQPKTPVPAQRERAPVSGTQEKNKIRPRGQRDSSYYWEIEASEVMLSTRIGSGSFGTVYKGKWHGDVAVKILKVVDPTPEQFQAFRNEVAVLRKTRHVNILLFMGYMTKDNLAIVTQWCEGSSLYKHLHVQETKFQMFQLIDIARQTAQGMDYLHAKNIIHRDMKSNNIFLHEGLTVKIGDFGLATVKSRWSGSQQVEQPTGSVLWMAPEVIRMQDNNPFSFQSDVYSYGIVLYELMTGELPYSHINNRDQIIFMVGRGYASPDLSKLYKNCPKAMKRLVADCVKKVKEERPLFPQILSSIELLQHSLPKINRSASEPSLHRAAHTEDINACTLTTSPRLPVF

[9] = target: Serine/threonine-protein kinase PLK1 (Homo sapiens) (UniProt P53350); assay: Inhibition of PLK1 (unknown origin) at 10 uM
[10] = species: Homo sapiens; assay: Inhibition of PKA (unknown origin) at 10 uM
[11] = target: T2, Mitogen-activated protein kinase 14 (Homo sapiens, UniProt Q16539); assay: Inhibition of P38a/MAPK14 (unknown origin) at 10 uM
T2 sequence (Q16539 whole entry): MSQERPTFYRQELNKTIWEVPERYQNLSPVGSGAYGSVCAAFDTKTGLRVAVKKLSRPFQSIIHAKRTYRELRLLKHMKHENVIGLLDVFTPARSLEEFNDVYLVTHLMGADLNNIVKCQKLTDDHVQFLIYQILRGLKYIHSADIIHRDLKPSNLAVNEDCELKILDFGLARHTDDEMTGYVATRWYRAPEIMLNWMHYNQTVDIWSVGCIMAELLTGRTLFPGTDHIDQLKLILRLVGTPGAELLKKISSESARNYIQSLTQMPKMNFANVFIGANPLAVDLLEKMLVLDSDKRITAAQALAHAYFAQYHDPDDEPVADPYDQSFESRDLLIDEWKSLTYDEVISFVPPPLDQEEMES

[12] = target: Serine/threonine-protein kinase mTOR (Homo sapiens) (UniProt P42345); assay: Inhibition of mTOR/FRAP1 (unknown origin) at 10 uM
[13] = target: Dual specificity mitogen-activated protein kinase kinase 1 (Homo sapiens) (UniProt Q02750); assay: Inhibition of MEK1 (unknown origin) at 10 uM
[14] = target: Tyrosine-protein kinase Lyn (Homo sapiens) (UniProt P07948); assay: Inhibition of LYN (unknown origin) at 10 uM
Chain of Tyrosine-protein kinase Lyn (Homo sapiens) (P07948 2-512 limits assumed): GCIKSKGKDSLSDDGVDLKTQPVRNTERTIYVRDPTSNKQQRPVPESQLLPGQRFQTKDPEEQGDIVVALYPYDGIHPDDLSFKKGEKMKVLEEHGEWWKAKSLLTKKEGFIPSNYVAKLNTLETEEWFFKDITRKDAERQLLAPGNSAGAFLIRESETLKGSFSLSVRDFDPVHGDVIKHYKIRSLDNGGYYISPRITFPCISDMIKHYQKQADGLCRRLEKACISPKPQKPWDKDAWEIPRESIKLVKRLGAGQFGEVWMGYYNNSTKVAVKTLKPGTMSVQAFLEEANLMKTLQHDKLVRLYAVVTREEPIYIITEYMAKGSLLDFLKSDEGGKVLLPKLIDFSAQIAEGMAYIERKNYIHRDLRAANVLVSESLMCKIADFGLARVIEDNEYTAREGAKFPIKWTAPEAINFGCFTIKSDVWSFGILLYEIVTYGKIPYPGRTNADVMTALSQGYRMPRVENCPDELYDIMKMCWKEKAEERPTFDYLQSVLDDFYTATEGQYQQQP

[15] = target: Tyrosine-protein kinase Lck (Homo sapiens) (UniProt P06239); assay: Inhibition of LCK (unknown origin) at 10 uM
Chain of Tyrosine-protein kinase Lck (Homo sapiens) (P06239 2-509 limits assumed): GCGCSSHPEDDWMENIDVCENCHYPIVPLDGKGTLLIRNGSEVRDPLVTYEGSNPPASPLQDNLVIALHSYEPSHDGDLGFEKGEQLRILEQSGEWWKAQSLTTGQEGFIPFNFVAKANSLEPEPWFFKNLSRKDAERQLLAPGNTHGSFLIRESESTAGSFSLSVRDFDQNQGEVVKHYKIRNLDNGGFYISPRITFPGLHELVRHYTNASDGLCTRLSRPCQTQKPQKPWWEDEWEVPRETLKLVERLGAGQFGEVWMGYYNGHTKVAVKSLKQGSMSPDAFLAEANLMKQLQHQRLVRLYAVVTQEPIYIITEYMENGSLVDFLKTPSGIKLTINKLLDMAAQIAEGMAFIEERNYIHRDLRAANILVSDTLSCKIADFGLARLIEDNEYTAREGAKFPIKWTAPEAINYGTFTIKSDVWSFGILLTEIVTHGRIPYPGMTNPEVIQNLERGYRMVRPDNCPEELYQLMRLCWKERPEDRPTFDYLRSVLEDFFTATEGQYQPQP

[16] = target: Mitogen-activated protein kinase 10 (Homo sapiens) (UniProt P53779); assay: Inhibition of JNK3 (unknown origin) at 10 uM
[17] = target: Tyrosine-protein kinase JAK3 (Homo sapiens) (UniProt P52333); assay: Inhibition of JAK3 (unknown origin) at 10 uM
[18] = target: Insulin-like growth factor 1 receptor (Homo sapiens) (UniProt P08069); assay: Inhibition of IGF1R (unknown origin) at 10 uM
[19] = target: Glycogen synthase kinase-3 beta (Homo sapiens) (UniProt P49841); assay: Inhibition of GSK3b (unknown origin) at 10 uM
[20] = target: Macrophage colony-stimulating factor 1 receptor (Homo sapiens) (UniProt P07333); assay: Inhibition of FMS (unknown origin) at 10 uM
[21] = target: Receptor-type tyrosine-protein kinase FLT3 (Homo sapiens) (UniProt P36888); assay: Inhibition of FLT3 (unknown origin) at 10 uM
[22] = target: Fibroblast growth factor receptor 3 (Homo sapiens) (UniProt P22607); assay: Inhibition of FGFR3 (unknown origin) at 10 uM
[23] = target: Mitogen-activated protein kinase 3 (Homo sapiens) (UniProt P27361); assay: Inhibition of ERK1 (unknown origin) at 10 uM
[24] = target: Epidermal growth factor receptor (Homo sapiens) (UniProt P00533); assay: Inhibition of EGFR (unknown origin) at 10 uM
[25] = target: Cyclin-dependent kinase 1/cyclin B1 (Homo sapiens) (UniProt P06493+P14635); assay: Inhibition of CDK1/cyclin B (unknown origin) at 10 uM; assay type: protein-complex assay
Chain of Cyclin-dependent kinase 1/cyclin B1 (Homo sapiens) (P06493 whole entry, looked up): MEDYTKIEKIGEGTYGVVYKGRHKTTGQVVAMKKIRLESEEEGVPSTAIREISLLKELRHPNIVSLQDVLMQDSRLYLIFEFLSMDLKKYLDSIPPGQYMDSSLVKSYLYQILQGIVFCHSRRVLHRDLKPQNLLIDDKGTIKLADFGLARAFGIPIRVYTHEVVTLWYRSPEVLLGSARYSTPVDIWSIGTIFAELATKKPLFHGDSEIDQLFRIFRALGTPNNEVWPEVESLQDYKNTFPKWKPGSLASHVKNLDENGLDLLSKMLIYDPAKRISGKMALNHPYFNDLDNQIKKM
Chain of Cyclin-dependent kinase 1/cyclin B1 (Homo sapiens) (P14635 whole entry, looked up): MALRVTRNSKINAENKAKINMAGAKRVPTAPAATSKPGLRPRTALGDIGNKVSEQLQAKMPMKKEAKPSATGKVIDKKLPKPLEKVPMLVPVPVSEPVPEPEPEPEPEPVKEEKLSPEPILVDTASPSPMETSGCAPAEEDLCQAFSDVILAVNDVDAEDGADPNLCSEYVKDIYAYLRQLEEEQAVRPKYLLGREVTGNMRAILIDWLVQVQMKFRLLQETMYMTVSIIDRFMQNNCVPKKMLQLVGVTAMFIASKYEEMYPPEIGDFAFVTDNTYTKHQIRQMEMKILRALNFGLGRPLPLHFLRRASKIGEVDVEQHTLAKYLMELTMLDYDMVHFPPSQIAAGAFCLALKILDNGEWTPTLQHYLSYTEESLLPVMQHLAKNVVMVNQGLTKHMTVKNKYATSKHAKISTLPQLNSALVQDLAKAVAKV

[26] = target: Proto-oncogene tyrosine-protein kinase Src (Homo sapiens) (UniProt P12931); assay: Inhibition of c-Src (unknown origin) at 10 uM
[27] = target: Hepatocyte growth factor receptor (Homo sapiens) (UniProt P08581); assay: Inhibition of c-MET (unknown origin) at 10 uM
[28] = target: Mast/stem cell growth factor receptor Kit (Homo sapiens) (UniProt P10721); assay: Inhibition of c-Kit (unknown origin) at 10 uM
[29] = target: Tyrosine-protein kinase BTK (Homo sapiens) (UniProt Q06187); assay: Inhibition of BTK (unknown origin) at 10 uM
[30] = target: Aurora kinase A (Homo sapiens) (UniProt O14965); assay: Inhibition of Aurora A (unknown origin) at 10 uM
[31] = target: ALK tyrosine kinase receptor (Homo sapiens) (UniProt Q9UM73); assay: Inhibition of ALK (unknown origin) at 10 uM
[32] = target: RAC-alpha serine/threonine-protein kinase (Homo sapiens) (UniProt P31749); assay: Inhibition of AKT1 (unknown origin) at 10 uM
[33] = target: Tyrosine-protein kinase ABL1 (Homo sapiens) (UniProt P00519); assay: Inhibition of ABL1 (unknown origin) at 10 uM
Chain of Tyrosine-protein kinase ABL1 (Homo sapiens) (P00519 whole entry): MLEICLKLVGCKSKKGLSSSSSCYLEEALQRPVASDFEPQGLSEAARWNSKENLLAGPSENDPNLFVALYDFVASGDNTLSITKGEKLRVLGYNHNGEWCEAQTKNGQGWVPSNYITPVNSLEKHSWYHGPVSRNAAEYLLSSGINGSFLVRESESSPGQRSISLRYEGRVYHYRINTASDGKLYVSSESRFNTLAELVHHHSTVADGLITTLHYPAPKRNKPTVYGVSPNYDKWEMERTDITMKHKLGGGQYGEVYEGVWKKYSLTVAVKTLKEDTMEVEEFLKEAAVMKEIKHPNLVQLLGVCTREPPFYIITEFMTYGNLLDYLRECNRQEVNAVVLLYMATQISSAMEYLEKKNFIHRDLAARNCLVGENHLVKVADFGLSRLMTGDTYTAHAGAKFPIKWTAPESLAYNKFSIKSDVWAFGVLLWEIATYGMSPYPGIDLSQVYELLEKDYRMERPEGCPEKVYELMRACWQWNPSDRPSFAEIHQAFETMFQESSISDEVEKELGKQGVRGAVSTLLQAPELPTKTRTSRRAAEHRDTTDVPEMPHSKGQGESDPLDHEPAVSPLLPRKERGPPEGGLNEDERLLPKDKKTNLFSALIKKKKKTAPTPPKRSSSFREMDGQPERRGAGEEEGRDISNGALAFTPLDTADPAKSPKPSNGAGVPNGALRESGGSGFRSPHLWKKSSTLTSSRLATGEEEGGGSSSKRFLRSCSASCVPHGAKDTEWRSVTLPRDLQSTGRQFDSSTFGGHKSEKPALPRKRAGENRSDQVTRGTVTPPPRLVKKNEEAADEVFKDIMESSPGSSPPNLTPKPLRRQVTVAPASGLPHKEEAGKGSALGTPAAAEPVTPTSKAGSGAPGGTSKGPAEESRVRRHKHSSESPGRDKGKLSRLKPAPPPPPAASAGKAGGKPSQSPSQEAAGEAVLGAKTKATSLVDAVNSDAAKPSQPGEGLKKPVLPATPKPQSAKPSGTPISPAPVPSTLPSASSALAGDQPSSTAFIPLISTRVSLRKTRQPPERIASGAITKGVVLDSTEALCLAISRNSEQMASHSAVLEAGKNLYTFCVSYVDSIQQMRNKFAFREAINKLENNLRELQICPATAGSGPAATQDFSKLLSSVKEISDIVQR

[34] = target: T3, Serine/threonine-protein kinase B-raf (Homo sapiens, UniProt P15056); assay: Inhibition of BRAF (unknown origin)
T3 sequence (P15056 whole entry): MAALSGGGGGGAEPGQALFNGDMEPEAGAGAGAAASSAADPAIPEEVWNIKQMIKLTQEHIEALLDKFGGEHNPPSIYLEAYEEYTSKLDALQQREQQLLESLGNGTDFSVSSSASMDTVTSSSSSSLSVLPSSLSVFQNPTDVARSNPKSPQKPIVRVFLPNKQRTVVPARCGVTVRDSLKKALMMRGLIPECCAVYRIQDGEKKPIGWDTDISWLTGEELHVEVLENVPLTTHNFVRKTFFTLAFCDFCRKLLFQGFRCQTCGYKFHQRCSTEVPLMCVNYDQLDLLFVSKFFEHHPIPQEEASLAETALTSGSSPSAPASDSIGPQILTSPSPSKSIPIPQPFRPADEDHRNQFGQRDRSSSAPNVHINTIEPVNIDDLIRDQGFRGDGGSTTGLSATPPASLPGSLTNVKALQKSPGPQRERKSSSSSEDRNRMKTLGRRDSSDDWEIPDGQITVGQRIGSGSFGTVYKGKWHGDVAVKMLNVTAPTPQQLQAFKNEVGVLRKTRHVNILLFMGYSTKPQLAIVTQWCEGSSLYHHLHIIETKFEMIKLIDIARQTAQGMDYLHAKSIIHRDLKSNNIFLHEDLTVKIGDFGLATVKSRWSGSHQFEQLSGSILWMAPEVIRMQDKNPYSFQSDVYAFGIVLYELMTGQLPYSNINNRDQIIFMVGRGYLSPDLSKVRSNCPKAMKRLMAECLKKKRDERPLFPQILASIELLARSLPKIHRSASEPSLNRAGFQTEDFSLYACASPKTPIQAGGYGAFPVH

[35] = target: Serine/threonine-protein kinase B-raf (Homo sapiens, UniProt P15056, V600E); assay: Inhibition of BRAF V599E mutant (unknown origin)
[36] = target: T2, Mitogen-activated protein kinase 14; assay: Inhibition of P38a/MAPK14 (unknown origin)
[37] = target: T1, RAF proto-oncogene serine/threonine-protein kinase; assay: Inhibition of cRAF1 (unknown origin) at 10 uM
[38] = tested on: Serine/threonine-protein kinase B-raf (Homo sapiens), P15056 [V600E]; details: 10 uM
Chain of Serine/threonine-protein kinase B-raf (Homo sapiens), P15056 [V600E] (P15056 whole entry V600E): as the sequence (P15056 whole entry) above, with V600E counted along it
Description: Inhibition of BRAF V599E mutant (unknown origin) at 10 uM

[39] = target: T3, Serine/threonine-protein kinase B-raf; details: 10 uM
Description: Inhibition of BRAF (unknown origin) at 10 uM

[40] = target: Focal adhesion kinase 1 (Homo sapiens) (UniProt Q05397); assay: Inhibition of FAK/PTK2 (unknown origin) at 10 uM

`C[C@H](O)CNc1nccc(-n2ccnc2C(=O)c2cccc(NC(=O)c3cccc(Cl)c3)c2)n1` gave a GI50 [1] of over 30 µM and a GI50 [2] of over 30 µM.
With `C[C@H](O)CNc1nccc(-n2ccnc2Cc2cccc(NC(=O)c3ccc(N4CCOCC4)c(C(F)(F)F)c3)c2)n1` the GI50 [3] was “inactive” and the GI50 [4] was “inactive”.
`C[C@H](O)CNc1nccc(-n2ccnc2C(=O)c2cccc(NC(=O)c3ccc(Cl)cc3)c2)n1` gave a GI50 [1] of over 30 µM and a GI50 [2] of over 30 µM.
With `COc1ccc(-c2ccc(C(=O)Nc3cccc(C(=O)c4nccn4-c4ccnc(NC[C@H](C)O)n4)c3)o2)cc1` the GI50 [1] was 9.39 µM and the GI50 [2] was 2.55 µM.
With `C[C@H](O)CNc1nccc(-n2ccnc2C(=O)c2cccc(NC(=O)c3cc(N4CCN(C)CC4)cc(C(F)(F)F)c3)c2)n1` the GI50 [1] was 27.8 µM and the GI50 [4] was “inactive”.
Work on `C[C@H](O)CNc1nccc(-n2ccnc2C(=O)c2cccc(NC(=O)Nc3ccc(Cl)c(Cl)c3)c2)n1` yielded a GI50 [1] of over 30 µM and a GI50 [2] of 14.7 µM.
With `Cc1cc(C)cc(C(=O)Nc2cccc(Cc3nccn3-c3ccnc(NC[C@H](C)O)n3)c2)c1` the GI50 [3] was “inactive” and the GI50 [2] was 16.8 µM.
With `C[C@H](O)CNc1nccc(-n2ccnc2Cc2cccc(NC(=O)c3ccc4ccccc4n3)c2)n1` the GI50 [3] was “inactive” and the GI50 [2] was 23.8 µM.
For `C[C@H](O)CNc1nccc(-n2ccnc2C(=O)c2ccc(NC(=O)c3cc(N4CCN(C)CC4)cc(C(F)(F)F)c3)cc2)n1`, the GI50 [1] was 5.92 µM and the GI50 [4] was “inactive”.
With `C[C@H](O)CNc1nccc(-n2ccnc2C(=O)c2ccc(NC(=O)c3ccc(C(F)(F)F)c(N4CCOCC4)c3)cc2)n1` the GI50 [1] was 7.07 µM and the GI50 [4] was “inactive”.
With `Cc1c(C)c2c(c(C)c1O)CC[C@](C)(C(=O)Nc1cccc(Cc3nccn3-c3ccnc(NC[C@H](C)O)n3)c1)O2` the GI50 [3] was “inactive” and the GI50 [2] was 23.6 µM.
`C[C@H](O)CNc1nccc(-n2ccnc2Cc2cccc(NC(=O)c3cnn(-c4ccccc4)c3C(F)(F)F)c2)n1` showed a GI50 [1] of 6.39 µM and a GI50 [2] of 25.8 µM.
Work on `C[C@H](O)CNc1nccc(-n2ccnc2C(=O)c2ccc(NC(=O)c3ccc(Cl)cc3)cc2)n1` yielded a GI50 [1] of over 30 µM and a GI50 [2] of over 30 µM.
`C[C@H](O)CNc1nccc(-n2ccnc2C(=O)c2ccc(NC(=O)c3cccc(Cl)c3)cc2)n1` gave a GI50 [1] of over 30 µM and a GI50 [2] of over 30 µM.
For `C[C@H](O)CNc1nccc(-n2ccnc2Cc2cccc(NC(=O)c3ccccc3F)c2)n1`, the GI50 [1] was 7.45 µM and the GI50 [2] was over 30 µM.
`C[C@H](O)CNc1nccc(-n2ccnc2Cc2cccc(NC(=O)c3ccc(-c4ccccc4)cc3)c2)n1` showed a GI50 [1] of 0.6 µM and a GI50 [2] of 1.68 µM.
`CNC(=O)c1cc(Oc2ccc(NC(=O)Nc3ccc(Cl)c(C(F)(F)F)c3)cc2)ccn1` [SORAFENIB] showed a GI50 [1] of 3.4 µM and a GI50 [2] of 2.74 µM.
In the case of `C[C@H](O)CNc1nccc(-n2ccnc2Cc2cccc(NC(=O)c3ccc(Cl)cc3)c2)n1`, the GI50 [1] is reported as 10.2 µM and the GI50 [2] is reported as over 30 µM.
Work on `C[C@H](O)CNc1nccc(-n2ccnc2Cc2cccc(NC(=O)Nc3ccc(Cl)c(C(F)(F)F)c3)c2)n1` yielded a GI50 [1] of 1.82 µM, a GI50 [2] of 2.73 µM and an inhibition [5] of 0%. For the same compound, the inhibition [6] was 0.73%, the inhibition [7] was 0.42% and the inhibition [8] was 98.7%. For the same compound, the inhibition [9] was 9.9%, the inhibition [10] was 0% and the inhibition [11] was 94.3%. It also gave an inhibition [12] of 0%, an inhibition [13] of 0% and an inhibition [14] of 8.1%. It also gave an inhibition [15] of 5.8%, an inhibition [16] of 0% and an inhibition [17] of 0%. It also gave an inhibition [18] of 0%, an inhibition [19] of 34.5% and an inhibition [20] of 33.6%. For the same compound, the inhibition [21] was 68.4%, the inhibition [22] was 3.5% and the inhibition [23] was 0%. The inhibition [24] was 0%, the inhibition [25] was 34.8% and the inhibition [26] was 2.1%. The inhibition [27] was 17.6%, the inhibition [28] was 63.8% and the inhibition [29] was 0%. It also gave an inhibition [30] of 17.6%, an inhibition [31] of 4.9% and an inhibition [32] of 12.9%. The inhibition [33] was 6.9%, the IC50 [34] was 0.186 µM and the IC50 [35] was 0.0383 µM. It also gave an IC50 [36] of 0.571 µM, an IC50 [37] of 0.00879 µM and an inhibition [38] of 96.1%. It also gave an inhibition [39] of 99.9% and an inhibition [40] of 1.2%.
With `CCN1CCN(Cc2ccc(NC(=O)Nc3cccc(Cc4nccn4-c4ccnc(NC[C@H](C)O)n4)c3)cc2C(F)(F)F)CC1` the GI50 [1] was over 30 µM and the GI50 [2] was over 30 µM.
